From US20260265724A1, “BIOSENSOR COMPRISING A MODIFIED BETA-LACTAMASE AND USES THEREOF” (priority 2022, published 2026)

Tests used:
[1] = biological target: T1, F70Cf (Klebsiella pneumoniae, UniProt C7C422, F70C); assay: Time-course fluorescence measurements of F70Cf on a spectrofluorometer; type: binding; conditions: for Fluorescence signal of F70Cf with inhibitor: F70Cf 0.13 μM, inhibitor 0, 2, 20 and 200 μM, excitation 494 nm, emission 518 nm, L-arginine 200 μM (1:1500) as control, FIGS. 7A-7E; for Initial phase of fluorescence increase (speed of binding to F70Cf): spectrophotometer, FIGS. 7A-7D; for Fluorescence signal of F70Cf with β-lactam antibiotic as a function of time: spectrofluorometer, mole ratios 1:150 and 1:1500, FIGS. 5A-5B
T1 construct: made in house; host or cells: E. coli BL21 (DE3), pET-3k vector; labelled with F5M after purification
T1 sequence (C7C422 29-270 F70C): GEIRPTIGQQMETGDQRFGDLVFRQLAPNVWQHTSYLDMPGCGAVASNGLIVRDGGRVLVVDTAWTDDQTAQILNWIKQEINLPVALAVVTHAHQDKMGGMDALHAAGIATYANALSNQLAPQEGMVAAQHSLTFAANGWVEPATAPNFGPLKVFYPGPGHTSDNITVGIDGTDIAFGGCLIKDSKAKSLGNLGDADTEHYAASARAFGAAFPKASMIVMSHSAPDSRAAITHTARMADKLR
Excerpt: To investigate fluorescence response of the proposed NDM-1 mutant to two existing β-lactam antibiotics, fluorescein-labelled NDM-1 mutant, F70Cf, was mixed with cefotaxime and cephalothin in two concentrations (in mole ratios of 1:150 and 1:1500) and compared the fluorescence intensity level of these two samples with a blank (i.e., no cefotaxime nor cephalothin, or mole ratio=1:0) under a spectrofluorometer. […] It has been shown in other previous studies (Chan et al., 2008; Tsang et al., 2011) that binding of β-lactam antibiotics to the enzyme's active site induces the […] to depart from the active site, so that the fluorescein label (F5M) becomes well exposed to external aqueous environment and/or stays away from amino acid quenchers in the active site. When the […] is hydrolyzed to the acid product, the fluorescein label (F5M) returns to the active site, thus restoring its weak fluorescence signal.
Time-course fluorescence measurements were recorded at 518 nm by exciting the F70Cf (final concentration: 0.13 μM) at 494 nm with different concentrations of the inhibitors (0, 2, 20 and 200 μM, respectively) in labelling buffer (50 μM ZnCl2, 20 mM Tris-HCl buffer, pH 7.0) in a quartz cuvette. Triplicate measurements were performed for each inhibitor. L-arginine in 200 μM was also used as a control.

[2] = biological target: T1, F70Cf; assay: Fluorescence microplate reader measurements of F70Cf; type: binding; conditions: for Initial increase in fluorescence signal, microplate reader: mole ratio 1:1500, FIGS. 8A-8D; for Fluorescence signal of F70Cf as a function of time, microplate reader: mole ratio of F70Cf to test substance 1:1500, FIGS. 6A-6B, 8E
Description: To investigate compatibility of F70Cf with a high-throughput screening platform, a F70Cf was initially added to a fluorescence microplate reader followed by injection of 1:1500 cefotaxime and cephalothin, respectively.
For high-throughput inhibitor screening experiments, the fluorescence signal changes were recorded by adding 10 μL of each inhibitor (final concentration: 200 μM) automatically into 250 μL of F70Cf (final concentration: 0.13 μM) in a 96-well plate containing 50 μM ZnCl2, 20 mM, pH7.0, Tris-HCl buffer, using Thermo Scientific Varioskan LUX Multimode Microplate Reader (Thermo Fisher Scientific) (n=3). The excitation and emission wavelengths were 494 and 520 nm, respectively. The injection of each inhibitor started at 0.5 min.

[3] = biological target: T1, F70Cf; assay: Native ESI-MS binding study of F70Cf with inhibitors; conditions: 20 mM ammonium acetate with 50 μM ZnCl2, FIGS. 9A-9F
Description: To further verify that F70Cf can bind to these non-β-lactam inhibitors non-covalently, native ESI-MS measurements were performed. […] Prior to ESI-MS analysis, protein was buffer-exchanged into 20 mM ammonium acetate with 50 μM ZnCl2 buffer with ultra-filtration devices. Equal volumes of F70Cf and inhibitors were mixed in a molar ratio of 1:20 for 10 minutes, and the mixture was directly loaded into metal-coated glass capillaries, which were subsequently mounted onto the nano-ESI source for MS analysis […].

[4] = biological target: NDM-1 (Klebsiella pneumoniae, UniProt C7C422); conditions: previous studies (Brem et al., 2016; Klingler et al., 2015; Ma et al., 2019); cited from earlier work
[5] = biological target: T2, F70C (NDM-1 mutant) (Klebsiella pneumoniae, UniProt C7C422, F70C); assay: Specific activity against antibiotics by ultraviolet-visible spectroscopy (antibiotic hydrolysis); type: biochemical; conditions: enzyme 0.001 mg/ml, 100 μM antibiotic, 50 μM ZnCl2, 20 mM Tris-HCl buffer, pH 7.0
T2 construct: made in house; host or cells: E. coli BL21 (DE3), pET-3k vector
T2 sequence (C7C422 29-270 F70C): as above
Description: (§1) Specific activity (U/mg) of wild-type NDM-1, F70C and F70Cf against different antibiotics were measured by ultraviolet-visible spectroscopy. Enzymes (final concentration: 0.001 mg/ml) were incubated with 100 μM of different antibiotics: cefotaxime, ceftazidime, penicillin G, ampicillin and meropenem, in 500 μL buffer (50 μM ZnCl2, 20 mM Tris-HCl buffer, pH 7.0). Antibiotic hydrolysis was monitored at 264 nm (cefotaxime), 260 nm (ceftazidime), 240 nm (penicillin G), 235 nm (ampicillin) and 297 nm (meropenem). The molar extinction coefficients were used as follows: cefotaxime=−7250 M^−1 cm^−1, ceftazidime=−8660 M^−1 cm^−1, penicillin G=−560 M^−1 cm^−1, ampicillin=900 M^−1 cm^−1 and meropenem −10940 M^−1 cm^−1.

[6] = biological target: T3, F70Cf (fluorescein-labelled NDM-1 mutant) (Klebsiella pneumoniae, UniProt C7C422, F70C); assay: as above; type: biochemical; conditions: enzyme 0.001 mg/ml, 100 μM antibiotic, 50 μM ZnCl2, 20 mM Tris-HCl buffer, pH 7.0
T3 construct: made in house; host or cells: E. coli BL21 (DE3), pET-3k vector; labelled with F5M after purification
T3 sequence (C7C422 29-270 F70C): as above
Description: as §1

[7] = biological target: T4, Wild-type NDM-1 (Klebsiella pneumoniae, UniProt C7C422); assay: as above; type: biochemical; conditions: enzyme 0.001 mg/ml, 100 μM antibiotic, 50 μM ZnCl2, 20 mM Tris-HCl buffer, pH 7.0
T4 construct: made in house; host or cells: E. coli BL21 (DE3), pET-3k vector
T4 sequence (C7C422 29-270 limits assumed): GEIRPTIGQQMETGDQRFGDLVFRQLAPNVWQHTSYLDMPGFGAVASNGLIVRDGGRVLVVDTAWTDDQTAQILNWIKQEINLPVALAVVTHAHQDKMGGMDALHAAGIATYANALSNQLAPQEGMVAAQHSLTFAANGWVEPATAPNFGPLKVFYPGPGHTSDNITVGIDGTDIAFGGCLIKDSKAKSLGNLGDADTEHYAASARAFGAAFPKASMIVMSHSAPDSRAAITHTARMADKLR
Description: as §1

What does the source list for `O=C(O)CNC(=O)C(CS)Cc1ccccc1` (racemic) [DL-thiorphan]?
Fluorescence signal of F70Cf with inhibitor [1]: increased with an increasing dose of the inhibitors; Initial phase of fluorescence increase (speed of binding to F70Cf) [1]: bind much faster to F70Cf as compared L-captopril; Initial increase in fluorescence signal, microplate reader [2]: much faster than that of L-captopril; Formation of non-covalent complex with F70Cf [3]: can form non-covalent complexes with F70Cf in a significant population; IC50 [4]: 1800 nM

For `CC1(C)S[C@@H]2[C@H](NC(=O)[C@H](N)c3ccccc3)C(=O)N2[C@H]1C(=O)O` [Ampicillin, ampicillin], which “Specific activity, F70C” value [5] is on record?
The value was 13880 ± 1406 U/mg.

What about the “Specific activity, F70Cf” value [6] of the same molecule?
Its value is 779 ± 114 U/mg.

What about the “Specific activity, Wild-type NDM-1” value [7] of the same molecule?
Its value is 16349 ± 880 U/mg.

Which “Specific activity, F70C” value [5] does the source give for `CO/N=C(\C(=O)N[C@@H]1C(=O)N2C(C(=O)O)=C(COC(C)=O)CS[C@H]12)c1csc(N)n1` [Cefotaxime, cefotaxime] here?
The value was 8195 ± 1960 U/mg.

What about the “Specific activity, F70Cf” value [6] of the same molecule?
Its value is 1529 ± 121 U/mg.

And the “Specific activity, Wild-type NDM-1” value [7]?
Its value is 8166 ± 937 U/mg.

What about the “Fluorescence signal of F70Cf with β-lactam antibiotic as a function of time” value [1] of the same molecule?
The value was “fluorescence signals increased and then decreased gradually as a function of time”.

What about the “Fluorescence signal of F70Cf as a function of time, microplate reader” value (shortened to “Fluorescence signal of F70Cf … microplate reader”) [2] of the same molecule?
Its value is “stronger fluorescence signals and then declining fluorescence signals as a function of time”.

Which “Specific activity, F70C” value [5] does the source give for `CC(C)(O/N=C(\C(=O)N[C@@H]1C(=O)N2C(C(=O)[O-])=C(C[n+]3ccccc3)CS[C@H]12)c1csc(N)n1)C(=O)O` [Ceftazidime, ceftazidime] here?
The value was 3835 ± 216 U/mg.

And the “Specific activity, F70Cf” value [6]?
Its value is 308 ± 33 U/mg.

What about the “Specific activity, Wild-type NDM-1” value [7] of the same molecule?
The value was 3446 ± 150 U/mg.

For `N=C(N)NCCC[C@H](N)C(=O)O` [L-arginine], which “Fluorescence signal of F70Cf with inhibitor” value [1] is on record?
Its value is “no fluorescence signal”.

What about the “Fluorescence signal of F70Cf … microplate reader” value [2] of the same molecule?
Its value is “no fluorescence signals”.

What about the “Formation of non-covalent complex with F70Cf” value [3] of the same molecule?
Its value is “virtually cannot form a F70Cf-L-arginine complex in a significant population”.

With `C[C@@H](O)[C@H]1C(=O)N2C(C(=O)O)=C(S[C@@H]3CN[C@H](C(=O)N(C)C)C3)[C@H](C)[C@H]12` [Meropenem, meropenem] as the molecule, how does the “Specific activity, F70C” value [5] read?
The value was 5863 ± 291 U/mg.

And the “Specific activity, F70Cf” value [6]?
Its value is 506 ± 30 U/mg.

And the “Specific activity, Wild-type NDM-1” value [7]?
Its value is 6834 ± 1582 U/mg.

What does the source list for `CC1(C)S[C@@H]2[C@H](NC(=O)Cc3ccccc3)C(=O)N2[C@H]1C(=O)O` [Penicillin G, penicillin G]?
Specific activity, F70C [5]: 60854 ± 1436 U/mg; Specific activity, F70Cf [6]: 10720 ± 330 U/mg; Specific activity, Wild-type NDM-1 [7]: 54764 ± 3013 U/mg

With `CC(=O)OCC1=C(C(=O)O)N2C(=O)[C@@H](NC(=O)Cc3cccs3)[C@H]2SC1` [cephalothin] as the molecule, how does the “Fluorescence signal of F70Cf with β-lactam antibiotic as a function of time” value [1] read?
The value was “fluorescence signals increased and then decreased gradually as a function of time”.

What about the “Fluorescence signal of F70Cf … microplate reader” value [2] of the same molecule?
Its value is “stronger fluorescence signals and then declining fluorescence signals as a function of time”.

For “peptide with an amino acid sequence of GSKKPVPIIYCNRRTGKCQRM (SEQ ID NO: 9), from GL Biochem [thanatin]”, which “Fluorescence signal of F70Cf with inhibitor” value [1] is on record?
Its value is “increased with an increasing dose of the inhibitors”.

What about the “Initial phase of fluorescence increase (speed of binding to F70Cf)” value [1] of the same molecule?
Its value is “bind much faster to F70Cf as compared L-captopril”.

And the “Initial increase in fluorescence signal, microplate reader” value [2]?
Its value is “much faster than that of L-captopril”.

And the “Formation of non-covalent complex with F70Cf” value [3]?
Its value is “can form non-covalent complexes with F70Cf in a significant population”.

What about the IC50 [4] of the same molecule?
Its IC50 is 3210 nM.
